The values that follow come from patent publication US20130150363A1, “Method of Treating Cancer Using a cMET and AXL Inhibitor and an ErbB Inhibitor” (GlaxoSmithKline, priority 2008, published 2013).

Molecules are shown by their SMILES. Some results are limits rather than exact numbers.

Holding throughout (type): cell-based
In assay [1] the test system is NCI-H1993 lung carcinoma cells. In words: Cell growth inhibition (CellTiter-Glo), NCI-H1993. Particulars: Homo sapiens, NCI-H1993, 72 h, 3 days. The text has this:
(§1) Esophageal carcinoma cell line OE33 was purchased from ECACC European Collection of Cell Cultures (UK). Breast cancer cell line JIMT-1 and gastric carcinoma cell line MKN-45 were purchased from Deutsche Sammlung von Mikroorganismen and Zellkulturen GmbH (Germany); KPL-4, a human breast cancer cell line was kindly provided by Prof. J Kurebayashi (Kawasaki Medical School, Kurashiki, Japan). […] The LICR-LON-HN5 head and neck carcinoma cell line (HN5) was a gift from the Institute of Cancer Research, Surrey, U.K. HN5C12 was developed by single-cell cloning of HN5 followed by exposure to increasing concentrations of lapatinib. […] Cell growth inhibition was determined via CellTiter-Glo cell viability assays. […] BT474-J4 and HN5C12 were washed with PBS and plated in their culture media without lapatinib. […] ATP levels were determined by adding Cell Titer Glo0 (Promega), incubating for 20 minutes then the luminescent signal was read on the SpectraMax M5 plate with a 0.5 second integration time. Cell growth was calculated relative to vehicle (DMSO) treated control wells. […] y=([…]) where A is the minimum response (ymin), B is the maximum response (ymax), c is the inflection point of the curve (EC50), d is the Hill coefficient, and x is the log10 compound concentration (moles/L). CI values were calculated with the interpolated IC50 values and the mutually non-exclusive equation derived by Chou and […](a)+Db/IC50(b)+(Da×Db)/(IC50(a)×IC50(b)) where IC50(a) is the IC50 of the inhibitor A; IC50(b) is the IC50 for the inhibitor B; […] Excess Over Highest Single Agent (EOHSA) is defined as a statistically significant improvement in the combination compared to the component monotherapies. […] See Borisy et al. (2003) or Hung et al. (1993) for examples and discussion. Analysis was conducted using two-factor analysis of variance with interaction (model terms were dose of drug A, dose of drug B, and interaction between doses of drug A and B), followed by linear contrasts between each combination group and corresponding monotherapies. Analysis was conducted using SAS (version 9, provided by SAS Institute, Cary, N.C.). EOHSA at each dose was calculated as the minimum difference in average % inhibition between the combination and each monotherapy, from the appropriate ANOVA contrast. Since there are many comparisons for the % inhibition endpoint, p-value adjustment for multiple comparisons was performed. Hommel's procedure was implemented in order to improve the power while retaining […] Error Rate (FWE) control by using a sequentially rejective method. The p-values for both synergy and antagonism were calculated using this adjustment.
In general terms: ATP-based viability assays read luminescence as a measure of living cells.

Assay [2] relates to NCI-H1648 lung carcinoma cells. In words: Cell growth inhibition (CellTiter-Glo), NCI-H1648. Particulars: Homo sapiens, NCI-H1648, 72 h, 3 days. An excerpt: (§2) Esophageal carcinoma cell line OE33 was purchased from ECACC European Collection of Cell Cultures (UK). Breast cancer cell line JIMT-1 and gastric carcinoma cell line MKN-45 were purchased from Deutsche Sammlung von Mikroorganismen and Zellkulturen GmbH (Germany); KPL-4, a human breast cancer cell line was kindly provided by Prof. J Kurebayashi (Kawasaki Medical School, Kurashiki, Japan). […] The LICR-LON-HN5 head and neck carcinoma cell line (HN5) was a gift from the Institute of Cancer Research, Surrey, U.K. HN5C12 was developed by single-cell cloning of HN5 followed by exposure to increasing concentrations of lapatinib. […] Cell growth inhibition was determined via CellTiter-Glo cell viability assays. […] BT474-J4 and HN5C12 were washed with PBS and plated in their culture media without lapatinib. […] ATP levels were determined by adding Cell Titer Glo0 (Promega), incubating for 20 minutes then the luminescent signal was read on the SpectraMax M5 plate with a 0.5 second integration time. Cell growth was calculated relative to vehicle (DMSO) treated control wells. […] Excess Over Highest Single Agent (EOHSA) is defined as a statistically significant improvement in the combination compared to the component monotherapies. […] Analysis was conducted using two-factor analysis of variance with interaction (model terms were dose of drug A, dose of drug B, and interaction between doses of drug A and B), followed by linear contrasts between each combination group and corresponding monotherapies. Analysis was conducted using SAS (version 9, provided by SAS Institute, Cary, N.C.). EOHSA at each dose was calculated as the minimum difference in average % inhibition between the combination and each monotherapy, from the appropriate ANOVA contrast. Since there are many comparisons for the % inhibition endpoint, p-value adjustment for multiple comparisons was performed. Hommel's procedure was implemented in order to improve the power while retaining […] Error Rate (FWE) control by using a sequentially rejective method. The p-values for both synergy and antagonism were calculated using this adjustment.

Assay [3] deals with NCI-H1573 lung carcinoma cells. In words: Cell growth inhibition (CellTiter-Glo), NCI-H1573. The following applies: Homo sapiens, NCI-H1573, 72 h, 3 days.
Text: as §2

The test system of assay [4] is NCI-H441 lung carcinoma cells. In words: Cell growth inhibition (CellTiter-Glo), NCI-H441. Particulars: Homo sapiens, NCI-H441, 72 h, 3 days.
The subject of assay [5] is NCI-H596 lung carcinoma cells. Kind of assay: Cell growth inhibition (CellTiter-Glo), NCI-H596. The following applies: Homo sapiens, NCI-H596, 72 h, 3 days.
Text: as §1

The test system of assay [6] is HOP-92 lung carcinoma cells. In words: Cell growth inhibition (CellTiter-Glo), HOP-92. The following applies: Homo sapiens, HOP-92, 72 h, 3 days.
Text: as §1

The test system of assay [7] is SCC15 head and neck squamous cell carcinoma cells. In words: Cell growth inhibition (CellTiter-Glo), SCC15. Particulars: Homo sapiens, SCC-15, 72 h, 3 days.
Text: as §2

Assay [8] has as its system SCC12 head and neck squamous cell carcinoma cells. Kind of assay: Cell growth inhibition (CellTiter-Glo), SCC12. Particulars: Homo sapiens, SCC12, 72 h, 3 days.
Text: as §1

Assay [9] relates to HN5C12 (HN5C2) lapatinib resistant head and neck carcinoma cells. In words: Cell growth inhibition (CellTiter-Glo), HN5C12. Particulars: Homo sapiens, 72 h, 3 days.
Text: as §1

The subject of assay [10] is KPL-4 breast cancer cells. Kind of assay: Cell growth inhibition (CellTiter-Glo), KPL-4. Particulars: Homo sapiens, KPL4, 72 h, 3 days.
Text: as §1

As usually defined, the IC50 is the concentration at which inhibition is half-maximal. Turning to `CS(=O)(=O)CCNCc1ccc(-c2ccc3ncnc(Nc4ccc(OCc5cccc(F)c5)c(Cl)c4)c3c2)o1` [Lapatinib, N-(3-chloro-4-{[(3-fluorophenyl)methyl]oxy}phenyl)-6-[5-({[2-(methylsulfonyl)ethyl]amino}methyl)-2-furanyl]-4-quinazolinamine], the IC50 in assay [1] (lung_H1993, +HGF (2 ng/mL)) was above 10 µM; in assay [1] (lung_H1993, −HGF) it was above 10 µM; in assay [2] (lung_H1648, +HGF (2 ng/mL)), above 10 µM; in assay [2] (lung_H1648, −HGF) it was 7.39 µM; in assay [3] (lung_H1573, +HGF (2 ng/mL)), above 10 µM; in assay [3] (lung_H1573, −HGF) it was 9.83 µM. The IC50 in assay [4] (lung_H441, +HGF (2 ng/mL)) was above 10 µM; in assay [4] (lung_H441, −HGF) it was above 10 µM; in assay [5] (lung_H596, +HGF (2 ng/mL)), above 10 µM; in assay [5] (lung_H596, −HGF), above 10 µM; in [6] (lung_HOP-92, +HGF (2 ng/mL)), above 10 µM; in assay [6] (lung_HOP-92, −HGF), above 10 µM. Further, the half-maximal inhibitory concentration (IC50) is 3.81 µM in assay [7] (hn_SCC15, +HGF (2 ng/mL)); 1.08 µM in assay [7] (hn_SCC15, −HGF); above 10 µM in [8] (hn_SCC12, +HGF (2 ng/mL)); above 10 µM in assay [8] (hn_SCC12, −HGF); 3.85 µM in assay [9] (hn_HN5C2, +HGF (2 ng/mL)); 4.12 µM in assay [9] (hn_HN5C2, −HGF). The IC50 was 0.89 µM in [10] (breast_KPL4, +HGF (2 ng/mL)) and 1 µM in [10] (breast_KPL4, −HGF).
On to `C#Cc1cccc(Nc2ncnc3cc(OCCOC)c(OCCOC)cc23)c1` [Erlotinib, N-(3-ethynylphenyl)-6,7-bis{[2-(methyloxy)ethyl]oxy}-4-quinazolinamine], for which the IC50 in assay [1] (lung_H1993, +HGF (2 ng/mL)) was above 10 µM; in assay [1] (lung_H1993, −HGF) it was 8.13 µM; in assay [2] (lung_H1648, +HGF (2 ng/mL)), above 10 µM; in assay [2] (lung_H1648, −HGF), above 10 µM; in assay [3] (lung_H1573, +HGF (2 ng/mL)), above 10 µM; in [3] (lung_H1573, −HGF) it was above 10 µM. Moreover, the IC50 in assay [4] (lung_H441, +HGF (2 ng/mL)) was above 10 µM; in [4] (lung_H441, −HGF), above 10 µM; in assay [5] (lung_H596, +HGF (2 ng/mL)), above 10 µM; in assay [5] (lung_H596, −HGF), above 10 µM; in assay [6] (lung_HOP-92, +HGF (2 ng/mL)), above 10 µM; in [6] (lung_HOP-92, −HGF), above 10 µM. Also, the IC50 in assay [7] (hn_SCC15, +HGF (2 ng/mL)) is 7.7 µM; in assay [7] (hn_SCC15, −HGF), 1.62 µM; in assay [8] (hn_SCC12, +HGF (2 ng/mL)) it was above 10 µM; in assay [8] (hn_SCC12, −HGF), above 10 µM; in assay [9] (hn_HN5C2, +HGF (2 ng/mL)) it was above 10 µM; in assay [9] (hn_HN5C2, −HGF), above 10 µM. The IC50 was above 10 µM in assay [10] (breast_KPL4, +HGF (2 ng/mL)) and above 10 µM in [10] (breast_KPL4, −HGF).
